Data reported in article PMC11266677, “Vitamin B5 metabolism is essential for vacuolar and mitochondrial functions and drug detoxification in fungi” (Communications Biology, 2024).

What was measured:
[1] = molecular target: T1, Acs1 (acetyl CoA synthetase) (Saccharomyces cerevisiae, UniProt Q01574); experiment: hydroxylamine-coupled acetyl CoA synthetase assay (acethydroxamic acid, OD540); type: biochemical
T1 construct: purified S. cerevisiae acetyl CoA synthetase (Sigma, A1765)

[2] = molecular target: T1, Acs1 (acetyl CoA synthetase); experiment: hydroxylamine-coupled acetyl CoA synthetase assay; […] inhibition at […]; type: biochemical

T1 sequence (Q01574 whole entry): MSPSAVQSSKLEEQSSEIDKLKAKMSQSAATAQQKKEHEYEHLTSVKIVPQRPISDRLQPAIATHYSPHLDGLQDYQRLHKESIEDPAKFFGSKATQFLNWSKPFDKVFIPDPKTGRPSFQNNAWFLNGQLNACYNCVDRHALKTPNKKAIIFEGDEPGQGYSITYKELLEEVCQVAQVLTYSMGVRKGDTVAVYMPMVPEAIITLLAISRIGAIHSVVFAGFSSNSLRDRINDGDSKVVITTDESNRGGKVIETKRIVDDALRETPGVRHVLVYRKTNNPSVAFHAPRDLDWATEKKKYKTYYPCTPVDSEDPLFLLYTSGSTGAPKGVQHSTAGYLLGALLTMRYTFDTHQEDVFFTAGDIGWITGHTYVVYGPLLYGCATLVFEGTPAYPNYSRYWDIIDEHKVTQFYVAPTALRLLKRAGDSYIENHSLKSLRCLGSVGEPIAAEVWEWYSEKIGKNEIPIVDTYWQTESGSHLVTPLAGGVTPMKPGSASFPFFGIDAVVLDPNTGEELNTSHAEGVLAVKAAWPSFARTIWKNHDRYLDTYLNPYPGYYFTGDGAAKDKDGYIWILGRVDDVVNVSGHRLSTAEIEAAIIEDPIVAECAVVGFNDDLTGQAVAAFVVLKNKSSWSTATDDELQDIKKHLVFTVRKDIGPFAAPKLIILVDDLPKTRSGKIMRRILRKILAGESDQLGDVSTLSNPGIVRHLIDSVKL

Structure (SMILES)	IC50 [1] [µM]	inhibition at 18.8 µM [2] [%]
NCC(=O)Nc1ccc(-n2nc(C(F)(F)F)cc2-c2ccc3c(ccc4ccccc43)c2)cc1 [AR-12]	~18	
CC(C)c1ccc(CC(=O)N2CCN(c3ccc(C#N)nn3)CC2)cc1 [PZ-2891]		32.7
